# From US20110065663A1, “ANTI-CANCER COMBINATION THERAPY” (Katholieke Universiteit Leuven, K.U. Leuven R&D, priority 2008, published 2011)
# Read-outs that look alike come from different tables or passages of the source.
# Tests used:
# MCF-7/HYOR cells = assay: Tumor cell proliferation assay, M. hyorhinis-infected MCF-7 cells; assay type: cell-based, human; settings: for Ratio (1)/(2) MCF-7/HYOR: IC50 in the absence of TPi to IC50 in the presence of TPi
# Method: Mycoplasma hyorhinis (ATCC 17981) was obtained from the American Type Culture Collection (ATCC, Manassas, Va.). The freeze-dried bacteria were reconstituted by adding 1 ml of DMEM. […] The co-culture of MCF-7 cells and M. hyorhinis was maintained under the same conditions as the uninfected MCF-7 cells. […] The cells were incubated for another 4 days, trypsinized and counted by a Coulter counter (Analis, Suarlée, Belgium).
# MCF-7/HYOR cell cultures = assay: Nucleoside metabolism experiments, distribution of drug-derived radiolabel in MCF-7/HYOR cell cultures; assay type: cell-based, human; settings: MCF-7/HYOR; for % of drug-derived radiolabel, In medium, Base / % of drug-derived radiolabel, In medium, Nucleoside / % of drug-derived radiolabel, In the cytosol of the cells, 5′-diphosphate / % of drug-derived radiolabel, In the cytosol of the cells, 5′-monophosphate / % of drug-derived radiolabel, In the cytosol of the cells, 5′-triphosphate / % of drug-derived radiolabel, In the cytosol of the cells, Nucleoside/nucleobase / % of drug-derived radiolabel, Incorporatio into DNA/RNA: 1 μCi, 16 h; for Increase of 5′-monophosphate levels in the presence of TPi: with versus without TPi
# MCF-7 cells = assay: Tumor cell proliferation assay, uninfected MCF-7 cells; assay type: cell-based, human; settings: for IC50: uninfected MCF-7; for Ratio (1)/(2) MCF-7: IC50 in the absence of TPi to IC50 in the presence of TPi
# E. coli TP = biological target: T1, E. coli TP (Escherichia coli, UniProt P07650); assay: Enzyme activity assay with recombinant E. coli TP (positive control); assay type: biochemical; settings: 0.025 U TP, 200 μM substrate
# T1 construct: purchased Sigma
# Method: The TP activity of M. hyorhinis and the conversion of dThd, FdUrd, 5′DFUR and TFT to thymine, 5FU, 5FU or TF-thymine respectively were measured by high-pressure liquid chromatography (HPLC) analysis. MCF-7 and MCF-7/HYOR cells were seeded at a density of 20,000 cells/cm^2 in DMEM with 10% FBS. Four days later, the medium was collected and cleared by centrifugation at 1,400 rpm. For some experiments, the medium of MCF-7/HYOR cells was filtered using a 0.1 μm micro filter (Acrodisc syringe filter, PALL Corporation, East Hills, N.Y.) to remove the mycoplasmas from the medium. 600 μl of the medium was incubated with 200 μM of substrate (dThd, 5′DFUR, TFT or FdUrd) at 37° C. in the presence or absence of 10 μM TPi. At different time points (i.e. 0, 15, 30, 60, 120 minutes and 16 hours), 100 μl aliquots were withdrawn, transferred to Eppendorf tubes and heated at 95° C. for 3 min. Next, the samples were rapidly cooled on ice, exposed for 20 min to 200 μl ice-cold methanol and cleared by centrifugation at 15,000 rpm for 15 minutes. As a positive control, an enzyme activity assay with E. coli TP (Sigma) was performed. For this reaction, 0.025 U of TP were incubated with 200 μM of substrate in TP-buffer (10 mM Tris-HCl, pH 7.6, 1 mM EDTA, 2 mM potassium phosphate and 150 mM NaCl) in a total volume of 600 μl. Aliquots of 100 μl were withdrawn from the reaction mixture at several time points and treated as described above. The nucleosides were separated from their nucleobases on a reversed-phase RP-8 column (Merck, Darmstadt, Germany) and quantified by HPLC analysis (Aliance 2690, Waters, Milford, Mass.). The separation was performed by a linear gradient from 100% buffer B (50 mM NaH2PO4 and 5 mM heptane sulfonic acid, pH 3.2), to 20% buffer B and 80% acetonitrile. Retention times of thymine and thymidine were respectively 5.1 and 10.8 minutes. UV-based detection of all nucleosides was performed at 267 nm.
# T1 sequence (P07650 whole entry): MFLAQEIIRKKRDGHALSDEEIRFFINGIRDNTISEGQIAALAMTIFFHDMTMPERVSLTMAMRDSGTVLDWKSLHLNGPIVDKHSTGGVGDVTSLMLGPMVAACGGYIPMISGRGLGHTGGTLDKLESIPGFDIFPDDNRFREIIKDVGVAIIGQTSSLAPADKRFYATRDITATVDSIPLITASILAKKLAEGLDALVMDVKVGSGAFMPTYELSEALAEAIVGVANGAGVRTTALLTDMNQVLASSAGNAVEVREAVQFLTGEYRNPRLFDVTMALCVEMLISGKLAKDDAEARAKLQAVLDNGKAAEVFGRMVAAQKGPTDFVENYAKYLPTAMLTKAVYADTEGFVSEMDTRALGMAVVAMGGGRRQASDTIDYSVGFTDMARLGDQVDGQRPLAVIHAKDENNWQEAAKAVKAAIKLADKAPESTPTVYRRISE
Compound,Ratio (1)/(2) MCF-7/HYOR (MCF-7/HYOR cells),"% of drug-derived radiolabel, In medium, Base (MCF-7/HYOR cell cultures) [%]","% of drug-derived radiolabel, In medium, Nucleoside (MCF-7/HYOR cell cultures) [%]","% of drug-derived radiolabel, In the cytosol of the cells, 5′-diphosphate (MCF-7/HYOR cell cultures) [%]","% of drug-derived radiolabel, In the cytosol of the cells, 5′-monophosphate (MCF-7/HYOR cell cultures) [%]","% of drug-derived radiolabel, In the cytosol of the cells, 5′-triphosphate (MCF-7/HYOR cell cultures) [%]","% of drug-derived radiolabel, In the cytosol of the cells, Nucleoside/nucleobase (MCF-7/HYOR cell cultures) [%]","% of drug-derived radiolabel, Incorporatio into DNA/RNA (MCF-7/HYOR cell cultures) [%]",Share incorporated into the nucleic acids in the presence of TPi (MCF-7/HYOR cell cultures),Increase of 5′-monophosphate levels in the presence of TPi (MCF-7/HYOR cell cultures) [fold],Ratio (1)/(2) MCF-7 (MCF-7 cells),"Percent conversion of nucleoside to the free pyrimidine base, recombinant E. coli TP (E. coli TP; 2 hours) [%]","Percent conversion of nucleoside to the free pyrimidine base, recombinant E. coli TP (E. coli TP; 16 hours) [%]",also measured
"O=c1[nH]c(=O)n([C@H]2C[C@H](O)[C@@H](CO)O2)cc1F [FdUrd, 5-fluoro-2′-deoxyuridine]",140,49.5,33.2,0.9,3.5,0.3,11.6,1.0,almost no,18,1.0,57,63,"IC50 (MCF-7/HYOR cells; Homo sapiens, MCF7, read-out: IC50 MCF-7/HYOR +TPi (10 μM)): 3 ± 1 nM; IC50 (MCF-7/HYOR cells; Homo sapiens, MCF7, read-out: IC50 MCF-7/HYOR As such): 420 ± 180 nM; IC50 (MCF-7/HYOR cells; Homo sapiens, MCF7, plasmocin 25 μg/ml, 1 day pretreatment, read-out: IC50 MCF-7/HYOR +plasmocin (25 μg/ml) 1 day prior to addition of test compounds): 18 ± 2.2 nM; IC50 (MCF-7/HYOR cells; Homo sapiens, MCF7, plasmocin 25 μg/ml, 3 days pretreatment, read-out: IC50 MCF-7/HYOR +plasmocin (25 μg/ml) 3 days prior to addition of test compounds): 3 ± 1 nM; IC50 (MCF-7 cells; Homo sapiens, MCF7, 96 h, no TPi, 4 days, read-out: IC50 MCF-7 As such): 3 ± 2 nM; IC50 (MCF-7 cells; Homo sapiens, MCF7, with 10 μM TPi, read-out: IC50 MCF-7 +TPi (10 μM)): 3 ± 2 nM"
"O=c1[nH]c(=O)n([C@H]2C[C@H](O)[C@@H](CO)O2)cc1C(F)(F)F [TFT, 5-trifluorothymidine]",33,56.7,23.3,0.6,6.1,0.6,11.0,1.8,66%,2.7,1.8,48,85,"IC50 (MCF-7/HYOR cells; M. hyorhinis-infected MCF-7, no TPi, no plasmocin, read-out: IC50 MCF-7/HYOR As such): 6000 ± 3190 nM; IC50 (MCF-7/HYOR cells; M. hyorhinis-infected MCF-7, with 10 μM TPi, read-out: IC50 MCF-7/HYOR +TPi (10 μM)): 180 ± 70 nM; IC50 (MCF-7/HYOR cells; plasmocin 25 μg/ml, 1 day pretreatment, read-out: IC50 MCF-7/HYOR +plasmocin (25 μg/ml) 1 day prior to addition of test compounds): 450 ± 90 nM; IC50 (MCF-7/HYOR cells; plasmocin 25 μg/ml, 3 days pretreatment, read-out: IC50 MCF-7/HYOR +plasmocin (25 μg/ml) 3 days prior to addition of test compounds): 190 ± 60 nM; IC50 (MCF-7 cells; no TPi, 4 days, read-out: IC50 MCF-7 As such): 390 ± 120 nM; IC50 (MCF-7 cells; with 10 μM TPi, read-out: IC50 MCF-7 +TPi (10 μM)): 210 ± 110 nM"
